Experimental data taken from PubChem BioAssay AID256 (DTP/NCI, 2004).
Where “and” joins values, the source holds several entries; their conditions need not be identical. Equal values may be shown once. Toxic doses and inconclusive results are not listed.

System: CD2F1 mice, L1210 leukemia ip, survival T/C
Test: NCI In Vivo Anticancer Drug Screen. Data for tumor model L1210 Leukemia (intraperitoneal) in CD2F1 (CDF1) mice
Conditions: higher = longer survival
In short: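 Compound-dosed mice with transplantable tumor versus matched vehicle controls; endpoint ratio T/C reported.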

[1] = endpoint: mean survival time, dose: 100.0 mg/kg/injection, schedule: Q04DX003 (ip), vehicle: saline with Tween-80
[2] = endpoint: mean survival time, dose: 12.5 mg/kg/injection, schedule: Q04DX002 (ip), vehicle: saline with Tween-80
[3] = endpoint: mean survival time, dose: 200.0 mg/kg/injection, schedule: Q04DX003 (ip), vehicle: saline with Tween-80
[4] = endpoint: mean survival time, dose: 400.0 mg/kg/injection, schedule: Q04DX003 (ip), vehicle: saline with Tween-80
[5] = endpoint: mean survival time, dose: 100.0 mg/kg/injection, schedule: Q01DX009 (ip), vehicle: saline with Tween-80
[6] = endpoint: mean survival time, dose: 200.0 mg/kg/injection, schedule: Q01DX009 (ip), vehicle: saline with Tween-80
[7] = endpoint: mean survival time, dose: 50.0 mg/kg/injection, schedule: Q01DX009 (ip), vehicle: saline with Tween-80
[8] = endpoint: mean survival time, dose: 100.0 mg/kg/injection, schedule: Q01DX001 (ip), vehicle: saline with Tween-80
[9] = endpoint: mean survival time, dose: 200.0 mg/kg/injection, schedule: Q01DX001 (ip), vehicle: saline with Tween-80
[10] = endpoint: mean survival time, dose: 400.0 mg/kg/injection, schedule: Q01DX001 (ip), vehicle: saline with Tween-80

With `CCCCCOC(=S)S.[Pt]` the T/C (endpoint: mean survival time, dose: 6.25 mg/kg/injection, schedule: Q04DX003 (ip), vehicle: saline with Tween-80) was 101 % of control, the T/C (endpoint: mean survival time, dose: 12.5 mg/kg/injection, schedule: Q04DX003 (ip), vehicle: saline with Tween-80) was 104 % of control and the T/C (endpoint: mean survival time, dose: 25.0 mg/kg/injection, schedule: Q04DX003 (ip), vehicle: saline with Tween-80) was 108 % of control. For the same molecule, the T/C (endpoint: mean survival time, dose: 50.0 mg/kg/injection, schedule: Q04DX003 (ip), vehicle: saline with Tween-80) was 101 % of control and the T/C [1] was 104 % of control.
With `CC(=O)OC1C2C=CC1C1CC21` (stereo not given) the T/C (endpoint: mean survival time, dose: 100.0 mg/kg/injection, schedule: Q01DX001 (ip), vehicle: saline) was 96 % of control, the T/C (endpoint: mean survival time, dose: 200.0 mg/kg/injection, schedule: Q01DX001 (ip), vehicle: saline) was 100 % of control and the T/C (endpoint: mean survival time, dose: 400.0 mg/kg/injection, schedule: Q01DX001 (ip), vehicle: saline) was 98 % of control.
`CC(=O)Nc1ncc2ccccc2c1-c1ccc(N(CCOS(=O)(=O)c2ccc(C)cc2)CCOS(=O)(=O)c2ccc(C)cc2)cc1` was tested, and the T/C (endpoint: mean survival time, dose: 25.0 mg/kg/injection, schedule: Q04DX003 (ip), vehicle: DMSO) was 108 % of control, the T/C (endpoint: mean survival time, dose: 50.0 mg/kg/injection, schedule: Q04DX003 (ip), vehicle: DMSO) was 104 % of control and the T/C (endpoint: mean survival time, dose: 100.0 mg/kg/injection, schedule: Q04DX003 (ip), vehicle: DMSO) was 110 % of control. For the same molecule, the T/C (endpoint: mean survival time, dose: 200.0 mg/kg/injection, schedule: Q04DX003 (ip), vehicle: DMSO) was 116 % of control and the T/C (endpoint: mean survival time, dose: 400.0 mg/kg/injection, schedule: Q04DX003 (ip), vehicle: DMSO) was 108 % of control.
`CCC[CH2][Sn]1([CH2]CCC)[N](S(=O)(=O)c2ccc(C)cc2)c2ccccc2[N]1S(=O)(=O)c1ccc(C)cc1` was tested, and the T/C (endpoint: mean survival time, dose: 3.13 mg/kg/injection, schedule: Q04DX002 (ip), vehicle: saline with Tween-80) was 94 % of control, the T/C (endpoint: mean survival time, dose: 6.25 mg/kg/injection, schedule: Q04DX002 (ip), vehicle: saline with Tween-80) was 102 % of control and the T/C [2] was 94 % of control.
`N#CSCCSC#N` was tested, and the T/C (endpoint: mean survival time, dose: 2.5 mg/kg/injection, schedule: Q04DX003 (ip), vehicle: Klucel (hydroxypropylcellulose) (HPC)) was 102 % of control, the T/C (endpoint: mean survival time, dose: 5.0 mg/kg/injection, schedule: Q04DX003 (ip), vehicle: Klucel (hydroxypropylcellulose) (HPC)) was 120 % of control and the T/C (endpoint: mean survival time, dose: 10.0 mg/kg/injection, schedule: Q04DX003 (ip), vehicle: Klucel (hydroxypropylcellulose) (HPC)) was 105 % of control.
In the case of `CCC(C)CNCCO` (stereo not given), the T/C (endpoint: mean survival time, dose: 100.0 mg/kg/injection, schedule: Q04DX003 (ip), vehicle: saline) is reported as 100 % of control and the T/C (endpoint: mean survival time, dose: 200.0 mg/kg/injection, schedule: Q04DX003 (ip), vehicle: saline) is reported as 95 % of control.
For `C[N+](C)(CC(=O)Nc1ccc(Cl)c(Cl)c1)Cc1ccc(Cl)c(Cl)c1`, the T/C (endpoint: mean survival time, dose: 6.25 mg/kg/injection, schedule: Q01DX001 (ip), vehicle: saline with Tween-80) was 101 % of control, the T/C (endpoint: mean survival time, dose: 6.25 mg/kg/injection, schedule: Q01DX009 (ip), vehicle: saline sonified) was 94 % of control and the T/C (endpoint: mean survival time, dose: 12.5 mg/kg/injection, schedule: Q01DX001 (ip), vehicle: saline with Tween-80) was 103 % of control. The T/C (endpoint: mean survival time, dose: 12.5 mg/kg/injection, schedule: Q01DX009 (ip), vehicle: saline sonified) was 93 % of control, the T/C (endpoint: mean survival time, dose: 25.0 mg/kg/injection, schedule: Q01DX001 (ip), vehicle: saline with Tween-80) was 105 % of control and the T/C (endpoint: mean survival time, dose: 25.0 mg/kg/injection, schedule: Q01DX009 (ip), vehicle: saline sonified) was 86 % of control.
`NC(=O)C1(C(N)=O)CCCC1` was tested, and the T/C (endpoint: mean survival time, dose: 75.0 mg/kg/injection, schedule: Q04DX002 (ip), vehicle: saline with Tween-80) was 112 % of control, the T/C (endpoint: mean survival time, dose: 150.0 mg/kg/injection, schedule: Q04DX002 (ip), vehicle: saline with Tween-80) was 96 % of control and the T/C (endpoint: mean survival time, dose: 300.0 mg/kg/injection, schedule: Q04DX002 (ip), vehicle: saline with Tween-80) was 96 % of control.
With `CCOC(=O)NOP(=O)(N1CC1)N1CC1` the T/C [2] was 116 % of control, the T/C (endpoint: mean survival time, dose: 50.0 mg/kg/injection, schedule: Q04DX002 (ip), vehicle: saline with Tween-80) was 166 % of control and the T/C (endpoint: mean survival time, dose: 100.0 mg/kg/injection, schedule: Q04DX002 (ip), vehicle: saline with Tween-80) was 186 % of control.
`O=[Se](O)O.[NH-]C1CCCCC1[NH-].[Pt+2]` (stereo not given) was tested, and the T/C (endpoint: mean survival time, dose: 1.0 mg/kg/injection, schedule: Q04DX003 (ip), vehicle: dextrose) was 124 % of control.
In the case of `O=C(NCCO)c1cccnc1`, the T/C (endpoint: mean survival time, dose: 75.0 mg/kg/injection, schedule: Q04DX003 (ip), vehicle: saline sonified) is reported as 103 % of control, the T/C (endpoint: mean survival time, dose: 150.0 mg/kg/injection, schedule: Q04DX003 (ip), vehicle: saline sonified) is reported as 97 % of control and the T/C (endpoint: mean survival time, dose: 300.0 mg/kg/injection, schedule: Q04DX003 (ip), vehicle: saline sonified) is reported as 97 % of control. For the same molecule, the T/C (endpoint: mean survival time, dose: 600.0 mg/kg/injection, schedule: Q04DX003 (ip), vehicle: saline sonified) was 102 % of control.
For `Cc1ccccc1OS(=O)(=O)c1cccc([N+](=O)[O-])c1`, the T/C [1] was 103 % of control, the T/C [3] was 100 % of control and the T/C [4] was 100 % of control.
In the case of `CCn1c(N)c(N)c(=O)[nH]c1=S`, the T/C [5] is reported as 94 % of control, the T/C [6] is reported as 98 % of control and the T/C (endpoint: mean survival time, dose: 400.0 mg/kg/injection, schedule: Q01DX009 (ip), vehicle: saline with Tween-80) is reported as 88 % of control.
For `CCCC1C(=O)N=C(N)NC1=O` (stereo not given), the T/C (endpoint: mean survival time, dose: 100.0 mg/kg/injection, schedule: Q01DX001 (ip), vehicle: Klucel (hydroxypropylcellulose) (HPC)) was 97 % of control, the T/C (endpoint: mean survival time, dose: 200.0 mg/kg/injection, schedule: Q01DX001 (ip), vehicle: Klucel (hydroxypropylcellulose) (HPC)) was 104 % of control and the T/C (endpoint: mean survival time, dose: 400.0 mg/kg/injection, schedule: Q01DX001 (ip), vehicle: Klucel (hydroxypropylcellulose) (HPC)) was 101 % of control.
For `O=C(O)C(Br)(Br)Br.[Ag]`, the T/C [1] was 92 % of control, the T/C [3] was 89 % of control and the T/C [4] was 97 % of control.
In the case of `CC(=O)C1CCC2(C)C(CCC3C4CCC(C(C)=O)C4(C)CC(=O)C32)C1` (stereo not given), the T/C (endpoint: mean survival time, dose: 50.0 mg/kg/injection, schedule: Q01DX009 (ip), vehicle: Klucel (hydroxypropylcellulose) (HPC)) is reported as 96 % of control, the T/C (endpoint: mean survival time, dose: 100.0 mg/kg/injection, schedule: Q01DX009 (ip), vehicle: Klucel (hydroxypropylcellulose) (HPC)) is reported as 100 % of control and the T/C (endpoint: mean survival time, dose: 200.0 mg/kg/injection, schedule: Q01DX009 (ip), vehicle: Klucel (hydroxypropylcellulose) (HPC)) is reported as 93 % of control.
With `CC1SCCCS1` the T/C (endpoint: mean survival time, dose: 12.5 mg/kg/injection, schedule: Q04DX003 (ip), vehicle: other) was 106 % of control, the T/C (endpoint: mean survival time, dose: 25.0 mg/kg/injection, schedule: Q04DX003 (ip), vehicle: other) was 104 % of control and the T/C (endpoint: mean survival time, dose: 50.0 mg/kg/injection, schedule: Q04DX003 (ip), vehicle: other) was 102 % of control. For the same molecule, the T/C (endpoint: mean survival time, dose: 100.0 mg/kg/injection, schedule: Q04DX003 (ip), vehicle: other) was 102 % of control and the T/C (endpoint: mean survival time, dose: 200.0 mg/kg/injection, schedule: Q04DX003 (ip), vehicle: other) was 97 % of control.
With `Nc1nc(-c2cccc3ccccc23)cc2ccccc12` the T/C (endpoint: mean survival time, dose: 12.5 mg/kg/injection, schedule: Q01DX009 (ip), vehicle: saline with Tween-80) was 89 % of control and 98 % of control, the T/C (endpoint: mean survival time, dose: 25.0 mg/kg/injection, schedule: Q01DX009 (ip), vehicle: saline with Tween-80) was 101 % of control and 102 % of control and the T/C [7] was 104 % of control and 105 % of control. The T/C [5] was 112 % of control and 97 % of control and the T/C [6] was 118 % of control and 106 % of control.
For `COc1ccc(CCNC(C)Cc2ccc(OC)c(OC)c2)cc1OC` (stereo not given), the T/C (endpoint: mean survival time, dose: 12.5 mg/kg/injection, schedule: Q01DX009 (ip), vehicle: water) was 104 % of control, the T/C (endpoint: mean survival time, dose: 25.0 mg/kg/injection, schedule: Q01DX009 (ip), vehicle: water) was 101 % of control and the T/C (endpoint: mean survival time, dose: 50.0 mg/kg/injection, schedule: Q01DX009 (ip), vehicle: water) was 103 % of control.
For `Cc1onc(-c2ccccc2)c1C(=O)O`, the T/C [1] was 101 % of control, the T/C [3] was 93 % of control and the T/C [4] was 89 % of control.
With `O=CNO` the T/C [8] was 108 % of control, the T/C [9] was 104 % of control and the T/C [10] was 104 % of control.
`Cc1ccc([P+](Cc2ccccc2)(c2ccccc2)c2ccccc2)cc1` was tested, and the T/C (endpoint: mean survival time, dose: 5.0 mg/kg/injection, schedule: Q01DX001 (ip), vehicle: saline) was 108 % of control, the T/C (endpoint: mean survival time, dose: 10.0 mg/kg/injection, schedule: Q01DX001 (ip), vehicle: saline) was 105 % of control and the T/C (endpoint: mean survival time, dose: 20.0 mg/kg/injection, schedule: Q01DX001 (ip), vehicle: saline) was 96 % of control. For the same molecule, the T/C (endpoint: mean survival time, dose: 40.0 mg/kg/injection, schedule: Q01DX001 (ip), vehicle: saline) was 109 % of control.
`CC(C)(CO)Nc1ccc([N+](=O)[O-])cc1` was tested, and the T/C [8] was 104 % of control, the T/C [9] was 106 % of control and the T/C [10] was 107 % of control.
`NC(=O)c1ncn(C2OC3COP(=O)(O)OC3C2O)c1N` (stereo not given) was tested, and the T/C (endpoint: median survival time, dose: 44.6 mg/kg/injection, schedule: Q01DX005 (ip), vehicle: saline) was 98 % of control, the T/C (endpoint: median survival time, dose: 89.2 mg/kg/injection, schedule: Q01DX005 (ip), vehicle: saline) was 101 % of control and the T/C (endpoint: median survival time, dose: 178.5 mg/kg/injection, schedule: Q01DX005 (ip), vehicle: saline) was 93 % of control.
In the case of `O=[N+]([O-])c1ccc(Cl)c2c([N+](=O)[O-])cccc12`, the T/C [7] is reported as 100 % of control, the T/C [5] is reported as 93 % of control and the T/C [6] is reported as 96 % of control.
